Publication PMC6977966, “Inhibition of synucleinopathic seeding by rationally designed inhibitors” (eLife, 2020)
Read-outs that look alike come from different tables or passages of the source. Where a SMILES comes first, the peptide text is derived from it. Where no end group is shown, it is not given here. [ ]: non-standard residue; d: D form. Sar = CNCC(=O)O

Assays:
[1] = ref Rodriguez et al., 2015; cited from earlier work
From the text: Based on the atomic structure of NACore [68-GAVVTGVTAVA-78] as a template, we applied computational and structure-based approaches to design peptidic inhibitors. […] The inhibitors were designed using Rosetta-based computational modeling to bind to the tip of the steric-zipper protofilament, thereby capping the fibrils (Figure 1A). We identified four candidates; S37, S61, S62 and S71 that are computed to bind favo ...

α-syn fibrils = biological target: T1, α-syn fibrils (Homo sapiens, UniProt P37840); experiment: SPR binding to immobilized sonicated, filtered α-syn fibrils; details: steady-state, 1:1 binding model, read-out: equilibrium dissociation constant Kd, α-syn fibril
T1 construct: made in house; host or cells: Escherichia coli BL21 (DE3) gold
From the text: Computational modeling predicted that our candidate peptidic inhibitors bind α-syn fibril seeds and prevent their growth and propagation. To obtain direct evidence of binding of our inhibitors to α-syn fibril seeds, we used surface plasmon resonance (SPR) (Figure 2A). For the SPR experiments, α-syn fibrils were immobilized on a CM5 sensor chip using standard amine coupling chemistry. For immobilization, mature α-syn fibrils were sonicated to form short fragments (Figure 2—figure supplement 1A) and then filtered through a 0.22-micron filter to remove large aggregates, retaining short fibrils (Figure 2—figure supplement 1A). We confirmed that short fibrils generated by sonication retain the ability to seed monomeric α-syn using an in vitro-seeded-aggregation assay. […] We then immobilized the sonicated and filtered α-syn fibrils on a CM5 SPR chip and measured affinities of our peptide inhibitors to the fibrils. […] The equilibrium dissociation constant (Kd) was calculated by steady-state analysis, fitting the data with 1:1 binding model (Figure 2B). […]
Figure 2. […] (B) The equilibrium dissociation constant (Kd) was calculated by fitting the plot of steady-state inhibitor binding levels (SPR signal at steady-state) against inhibitor concentration with 1:1 binding model. […]

monomeric α-syn = biological target: T2, monomeric α-syn (Homo sapiens, UniProt P37840); experiment: SPR binding to immobilized α-syn monomers; details: Biacore T200, CM5 chip amine coupling, inhibitor 0.5–500 μM, 30 μl/min, PBS pH 7.4, 25°C, steady-state, 1:1 binding model, mean ± SD, performed thrice, read-out: dissociation constant Kd, α-syn monomer
T2 construct: prevent aggregation of full-length α-syn in vitro; made in house; host or cells: Escherichia coli BL21 (DE3) gold

| Compound | aggregation rate relative to NACore [1] | Kd (α-syn fibrils; Biacore T200, CM5 chip amine coupling, inhibitor 0.5–500 μM, 30 μl/min, PBS pH 7.4, 25°C, mean ± SD, performed thrice) | Kd (monomeric α-syn) | Kd (α-syn fibrils) |
| --- | --- | --- | --- | --- |
| AVVTGVTAV [69-AVVTGVTAV-77, smaller 9-residue segment within NACore] | aggregates slower than NACore |  |  |  |
| CC(C)[C@H](NC(=O)CN(C)C(=O)[C@@H](NC(=O)[C@@H](NC(=O)[C@@H](NC(=O)[C@H](C)NC(=O)[C@H](CCCNC(=N)N)NC(=O)[C@H](CCCNC(=N)N)NC(=O)[C@H](CCCNC(=N)N)NC(=O)[C@H](CCC(N)=O)NC(=O)[C@H](CCCNC(=N)N)NC(=O)[C@H](CCCNC(=N)N)NC(=O)[C@H](CCCCN)NC(=O)[C@H](CCCCN)NC(=O)[C@H](CCCNC(=N)N)NC(=O)CNC(=O)[C@@H](N)Cc1ccc(O)cc1)C(C)C)C(C)C)[C@@H](C)O)C(=O)N[C@H](C(=O)N[C@@H](C)C(=O)N[C@H](C(=O)N[C@@H](C)C(=O)N[C@@H](CCC(=O)O)C(=O)O)C(C)C)[C@@H](C)O [S71] (H-YGRKKRRQRRRAVVT[Sar]VTAVAE-OH) |  | 10.9 ± 0.11 µM | 116 ± 11.7 µM |  |
| GAVVWGVTAVGRKKRRQRRRPQ [S61] |  |  | 62.8 ± 11.7 µM | 9.28 µM |
